Test results published in patent US8232269B2, “Amide compounds useful in therapy” (Pfizer Inc., priority 2008, dated 2012).

Target: T1, Progesterone Receptor (PR) (Homo sapiens, UniProt P06401)
T1 construct: endogenous in cells; host or cells: T47D human breast mammary carcinoma cells
T1 sequence (P06401 1-933): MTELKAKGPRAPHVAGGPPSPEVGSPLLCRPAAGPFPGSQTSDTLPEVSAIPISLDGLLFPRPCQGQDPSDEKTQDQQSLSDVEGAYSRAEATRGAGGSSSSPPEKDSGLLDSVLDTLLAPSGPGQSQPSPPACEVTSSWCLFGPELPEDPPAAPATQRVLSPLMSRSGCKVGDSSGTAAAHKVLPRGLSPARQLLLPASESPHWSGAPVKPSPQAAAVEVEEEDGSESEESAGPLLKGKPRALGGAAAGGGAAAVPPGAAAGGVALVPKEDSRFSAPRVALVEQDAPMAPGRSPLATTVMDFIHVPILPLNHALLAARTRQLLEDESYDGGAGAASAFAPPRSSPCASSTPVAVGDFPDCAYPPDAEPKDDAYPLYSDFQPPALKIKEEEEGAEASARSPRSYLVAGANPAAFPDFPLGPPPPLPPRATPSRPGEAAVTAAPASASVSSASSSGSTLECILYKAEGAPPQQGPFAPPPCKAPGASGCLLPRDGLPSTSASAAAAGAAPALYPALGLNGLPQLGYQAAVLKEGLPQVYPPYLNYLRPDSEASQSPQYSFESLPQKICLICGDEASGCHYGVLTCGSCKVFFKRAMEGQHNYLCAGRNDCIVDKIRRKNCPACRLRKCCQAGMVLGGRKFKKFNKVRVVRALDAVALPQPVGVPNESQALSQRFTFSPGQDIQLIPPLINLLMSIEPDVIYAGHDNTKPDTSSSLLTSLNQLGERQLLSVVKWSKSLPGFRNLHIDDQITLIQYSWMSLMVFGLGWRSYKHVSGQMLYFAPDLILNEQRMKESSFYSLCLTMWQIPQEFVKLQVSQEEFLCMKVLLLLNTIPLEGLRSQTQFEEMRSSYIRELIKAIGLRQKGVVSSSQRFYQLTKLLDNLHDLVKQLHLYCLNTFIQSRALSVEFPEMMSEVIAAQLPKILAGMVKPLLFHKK
Assay: In vitro functional assay for progesterone receptor (PR) antagonists: inhibition of progesterone-induced alkaline phosphatase expression in T47D cells
Type: cell-based
Conditions: antagonist format, 5 nM progesterone, Ki calculated from IC50 with the Cheng-Prusoff equation
Source text: 1.0 In vitro Functional Assay for Progesterone Receptor (PR) Antagonists, Agonists and Modulators
The assay for PR antagonism takes advantage of the extensively reported modulation of alkaline phosphatase (AP) expression in human breast T47D mammary carcinoma cells {Beck et al., D. P. (1993). The progesterone antagonist RU486 acquires agonist activity upon stimulation of cAMP signalling pathways. Proc Natl Acad Sci USA 90, 4441-4445; Fensome et al. (2002). New progesterone receptor antagonists: 3,3-disubstituted-5-aryloxindoles. Bioorg Med Chem Lett 12, 3487-3490; Zhang et al., (2002a). 6-Aryl-1,4-dihydro-benzo d1,3oxazin-2-ones: a novel class of potent, selective, and orally active nonsteroidal progesterone receptor antagonists. Journal of Medicinal Chemistry 45, 4379-4382; Zhang et al., (2003). Novel 6-aryl-1,4-dihydrobenzo d oxazine-2-thiones as potent, selective, and orally active nonsteroidal progesterone receptor agonists. Bioorganic & Medicinal Chemistry Letters 13, 1313-1316; Zhang et al., (2002b). Potent nonsteroidal progesterone receptor agonists: synthesis and SAR study of 6-aryl benzoxazines. Bioorganic & Medicinal Chemistry Letters 12, 787-790; Zhang, Z. et al., (2000). In vitro characterization of trimegestone: a new potent and selective progestin. Steroids 65, 637-643}. […] In the absence of progesterone any agonist activity is also observed as an induction of AP activity. By running the assay in two formats (+/−progesterone (P4)), compounds behaving as PR antagonists, agonists, partial agonists or modulators with mixed agonist/antagonist activity can be identified.
Briefly, T47D cells are grown by propagating in DMEM with phenol red+10% FCS+2 mM Glutamine at 37° C./5% CO2. At 70-80% confluence, the media is exchanged for phenol red free DMEM+5% CS-FCS (Assay media). Cells are incubated overnight in assay media then harvested and frozen in assay media containing 10% DMSO at 1.5e7 cells/mL in 2 mL aliquots using a Planer and immediately stored in liquid nitrogen. Vials are removed from liquid nitrogen storage and immediately thawed in a water bath at 37° C. The cell suspension is added dropwise to 20 mL of assay media, then the tube centrifuged at 1000 rpm for 4 minutes, the supernatant is discarded and the pellet re-suspended in 20 mL assay media. T47D cells are then plated at 8750 cells/well in 35 μL assay media in sufficient white solid 384 well TC plates for the assay. For the agonist format assay a further 10 μL of assay media is added to each well. These plates are then cultured for 3-6 hours at 37° C./5% CO2 before compound addition.
Test substances are prepared by in 100% DMSO, half log concentrations from 4 mM in 384 well plates 5 μL/well (referred to here as ‘grandmother plates’). Progesterone is 100 μM made up in ethanol and PBS (i.e. add 1 mL ethanol to progesterone initially to help dissolving) and stored in 0.5-1 mL aliquots at −20° C.
Using a multidrop (Thermolabsystems), 60 μL/well of buffer is added to a 384 well plate—this will be the ‘mother plate’. _Add 45 μL well buffer to grandmother plate using the multidrop (=400 μM 10% DMSO dilution). Mixed and spun to remove air bubbles. • 20 μL is taken from the grandmother plate (400 μM 10% DMSO) and added to the mother plate (=100 μM 2.5% DMSO). Mixed and spun to remove air bubbles Preparation of Max/Min:
Antagonist Min: (Checker Pattern on Plate Map) 1 μM RU-486 (FAC 0.1 μM) • 50 μL of 0.2 mM RU-486 • 10 mL Diluent Addition of Test Substance to Cell Plates • The PlateMate Plus was used to add 5 μL MAX/MIN to cell plates • Then 5 μL test substances are added from the mother plate (after removing max/min PlateMate tips: columns 1 and 24)
Addition of Agonist (5 nM Progesterone FAC) for Antagonist Format Only
25 nM progesterone in assay media is prepared from 100 μM stock (12.5 μL progesterone/50 mL media), from which 10 μL per well is transferred to the assay plate using the PlateMate Plus (already containing cells & compound). […]

Row | Ki | Structure (SMILES)
1 | 17.8 nM | CCc1c(-c2ccc(C#N)cc2)nn(C(C)CC)c1C(=O)NC1CC1 (racemic) [Example 104, (+/−)-1-sec-Butyl-3-(4-cyanophenyl)-N-cyclopropyl-4-ethyl-1H-pyrazole-5-carboxamide]
2 | 14.2 nM | CCc1c(-c2ccc(C#N)cc2)nn(C(C)CC)c1C(=O)NC (racemic) [Example 105, (+/−)-1-sec-Butyl-3-(4-cyanophenyl)-4-ethyl-N-methyl-1H-pyrazole-5-carboxamide]
3 | 23.8 nM | CCc1c(-c2ccc(C#N)cc2)nn(C(C)CC)c1C(=O)NCC(C)(C)O (racemic) [Example 106, 1-sec-Butyl-3-(4-cyanophenyl)-4-ethyl-N-(2-hydroxy-2-methylpropyl)-1H-pyrazole-5-carboxamide]
4 | 199 nM | CCc1c(-c2ccc(C#N)cc2)nn(C(C)CC)c1C(=O)NCC(=O)NC (racemic) [Example 109, 1-sec-Butyl-3-(4-cyanophenyl)-4-ethyl-N-[2-(methylamino)-2-oxoethyl]-1H-pyrazole-5-carboxamide]
5 | 57.1 nM | Cc1c(-c2ccc(C#N)cc2)nn(C2CCOC2)c1C(=O)NCC(C)(C)O (single isomer, unassigned) [Example 80 Ent 1, 3-(4-Cyanophenyl)-N-(2-hydroxy-2-methylpropyl)-4-methyl-1-(tetrahydrofuran-3-yl)-1H-pyrazole-5-carboxamide]
6 | > 733 nM | Cc1c(-c2ccc(C#N)cc2)nn(C2CCOC2)c1C(=O)NCC(C)(C)O (single isomer, unassigned) [Example 80 Ent 2, 3-(4-Cyanophenyl)-N-(2-hydroxy-2-methylpropyl)-4-methyl-1-(tetrahydrofuran-3-yl)-1H-pyrazole-5-carboxamide]
7 | 14.8 nM | CCc1c(-c2ccc(C#N)cc2)nn(C(C)CC)c1C(=O)NCC(C)(C)O (single isomer, unassigned) [Example 106 Ent 1, 1-sec-Butyl-3-(4-cyanophenyl)-4-ethyl-N-(2-hydroxy-2-methylpropyl)-1H-pyrazole-5-carboxamide]
8 | 38.2 nM | CCc1c(-c2ccc(C#N)cc2)nn(C(C)CC)c1C(=O)NCC(C)(C)O (single isomer, unassigned) [Example 106 Ent 2, 1-sec-Butyl-3-(4-cyanophenyl)-4-ethyl-N-(2-hydroxy-2-methylpropyl)-1H-pyrazole-5-carboxamide]
9 | 99 nM | CCc1c(-c2ccc(C#N)cc2)nn(C(C)CC)c1C(=O)NCC(=O)NC (single isomer, unassigned) [Example 109 Ent 1, 1-sec-Butyl-3-(4-cyanophenyl)-4-ethyl-N-[2-(methylamino)-2-oxoethyl]-1H-pyrazole-5-carboxamide]
10 | 190 nM | CCc1c(-c2ccc(C#N)cc2)nn(C(C)CC)c1C(=O)NCC(=O)NC (single isomer, unassigned) [Example 109 Ent 2, 1-sec-Butyl-3-(4-cyanophenyl)-4-ethyl-N-[2-(methylamino)-2-oxoethyl]-1H-pyrazole-5-carboxamide]
11 | 19.8 nM | CC(C)n1nc(-c2ccc(C#N)cc2)c(C2CC2)c1C(=O)NCC(C)(C)O [Example 1, 3-(4-Cyano-phenyl)-4-cyclopropyl-N-(2-hydroxy-2-methylpropyl)-1-isopropyl-1H-pyrazole-5-carboxamide]

The next lines start with the molecule.

Row | Structure (SMILES) | Ki
12 | CCNC(=O)c1c(C)c(-c2ccc(C#N)cc2)nn1C1CCOC1 (single isomer, unassigned) [Example 76 Ent 1, 3-(4-Cyanophenyl)-N-ethyl-4-methyl-1-(tetrahydrofuran-3-yl)-1H-pyrazole-5-carboxamide] | 22.3 nM
13 | CCNC(=O)c1c(C)c(-c2ccc(C#N)cc2)nn1C1CCOC1 (single isomer, unassigned) [Example 76 Ent 2, 3-(4-Cyanophenyl)-N-ethyl-4-methyl-1-(tetrahydrofuran-3-yl)-1H-pyrazole-5-carboxamide] | 147 nM
14 | Cc1c(-c2ccc(C#N)cc2)nn(C2CCOC2)c1C(=O)NC(C)C (single isomer, unassigned) [Example 77 Ent 1, 3-(4-Cyanophenyl)-N-isopropyl-4-methyl-1-(tetrahydrofuran-3-yl)-1H-pyrazole-5-carboxamide] | 69.5 nM
15 | Cc1c(-c2ccc(C#N)cc2)nn(C2CCOC2)c1C(=O)NC(C)C (single isomer, unassigned) [Example 77 Ent 2, 3-(4-Cyanophenyl)-N-isopropyl-4-methyl-1-(tetrahydrofuran-3-yl)-1H-pyrazole-5-carboxamide] | 102 nM
16 | Cc1c(-c2ccc(C#N)cc2)nn(C2CCOC2)c1C(=O)NC[C@H](C)O (single isomer, unassigned) [Example 78 Diast 1] | > 242 nM
17 | Cc1c(-c2ccc(C#N)cc2)nn(C2CCOC2)c1C(=O)NC[C@H](C)O (single isomer, unassigned) [Example 78 Diast 2] | 49.4 nM
18 | Cc1c(-c2ccc(C#N)cc2)nn(C2CCOC2)c1C(=O)NC[C@@H](C)O (single isomer, unassigned) [Example 79 Diast 1] | > 766 nM
19 | Cc1c(-c2ccc(C#N)cc2)nn(C2CCOC2)c1C(=O)NC[C@@H](C)O (single isomer, unassigned) [Example 79 Diast 2] | 163 nM
20 | CCC(=O)N1CCC(NC(=O)c2c(C3CC3)c(-c3ccc(C#N)cc3)nn2C(C)C)C1 (stereo in doubt) [Example 12, 3-(4-Cyanophenyl)-4-cyclopropyl-1-isopropyl-N-[(3S)-1-propionylpyrrolidin-3-yl]-1H-pyrazole-5-carboxamide] | 17.2 nM
21 | CC(C)n1nc(-c2ccc(C#N)cc2)c(C2CC2)c1C(=O)NC[C@H](C)O [Example 2, 3-(4-Cyano-phenyl)-4-cyclopropyl-N-[(2S)-2-hydroxypropyl]-1-isopropyl-1H-pyrazole-5-carboxamide] | 9.39 nM
22 | CC(C)n1nc(-c2ccc(C#N)cc2)c(C2CC2)c1C(=O)NC[C@@H](C)O [Example 3, 3-(4-Cyano-phenyl)-4-cyclopropyl-N-[(2R)-2-hydroxypropyl]-1-isopropyl-1H-pyrazole-5-carboxamide] | 13.9 nM
